Source: the NIST ThermoML archive (doi:10.1016/j.jct.2013.09.028)

Experiments:
[1] = refractive index (Na D-line) (dimensionless); conditions: 101.33 kPa, Liquid, Standard Abbe refractometry
[2] = 101.33 kPa, Liquid; for viscosity: Capillary tube (Ostwald / Ubbelohde) method; for speed of sound: Sing-around technique in a fixed-path interferometer; for mass density: Vibrating tube method

CCCCCC[n+]1cc(C)cc(C)c1CCCCC.O=S(=O)([N-]S(=O)(=O)C(F)(F)F)C(F)(F)F
Conditions	mass density, [2] [kg/m3]	refractive index, [1]	speed of sound, [2] [m/s]	viscosity, [2] [mPa·s]
298.15 K	1253.47	1.46074	1291	278
303.15 K	1249.29	1.4591	1277	204
308.15 K	1245.09	1.45746	1264	151
313.15 K	1240.9	1.45583	1251	115
318.15 K	1236.71	1.45417	1238	88.5
323.15 K	1232.53	1.45255	1225	69.6
328.15 K	1228.37	1.45093	1213	55.7
333.15 K	1224.22	1.4493	1201	45.2
338.15 K	1220.07	1.44769	1188	37.1
343.15 K	1215.94	1.44607	1176	30.9

CCCCCc1c(C)cc(C)c[n+]1CCCC.O=S(=O)([N-]S(=O)(=O)C(F)(F)F)C(F)(F)F
Conditions	mass density, [2] [kg/m3]	refractive index, [1]	speed of sound, [2] [m/s]	viscosity, [2] [mPa·s]
298.15 K	1288.23	1.4604	1293	253
303.15 K	1283.93	1.45878	1279	186
308.15 K	1279.63	1.45714	1266	138
313.15 K	1275.33	1.45549	1253	105
318.15 K	1271.04	1.45386	1240	80.8
323.15 K	1266.77	1.45226	1228	63.7
328.15 K	1262.51	1.45065	1215	51
333.15 K	1258.26	1.44902	1203	41.5
338.15 K	1254.01	1.44744	1191	34.2
343.15 K	1249.77	1.44588	1179	28.6
